Where a name gives a salt, the structure may show the parent alone.
Tests used:
diabetic rats = assay: Ocular permeability in STZ diabetic rats (leakage of fluorescein into the vitreous); assay type: in vivo, rat; details: daily from 2 weeks after STZ, mean ± S.E.M., 10 rats
Description: Diabetes in rats was induced with an intraperitoneal (i.p.) injection of 65 mg/ml/kg of streptozotocin (STZ) in 2 mmol/l citrate buffer (pH 4.5) after a 20-h fast. At the same time control rats were injected with an equal volume of 2 mmol/l citrate buffer. Plasma glucose level was checked by a calorimetric method. At day 3 of STZ treatment, the rats were diagnosed with diabetes showing a plasma glucose level of 350 mg/dl.
The treatment of Compound A was given daily from 2 weeks after STZ treatment for 2 weeks. At 24 hrs after final treatment of Compound A, the vascular permeability in oculus was investigated based on the leakage of dye into the vitreous 30 min after intravenous injection of fluorescein solution (40 mg/ml/kg). Permeability was expressed as vitreous/plasma ratio of fluorescein concentration measured by a fluorophotometer. At the same time, the plasma SSAO activity was checked by the radiochemical-enzyme assay using ^14C-benzylamine (2×10^−5 mol/l final concentration) as substrate.
In the same manner as in Example 2, the effect of various VAP-1 inhibitors on ocular permeability was determined in diabetic rats.

| melting point [°C] | Structure (SMILES) | Vitreous/Plasma Ratio of Fluorescein Concentration (diabetic rats; 0.1 mg/kg, s.c.) | Vitreous/Plasma Ratio of Fluorescein Concentration (diabetic rats; 0.003%, ocular instillation, u.i.d.) |
| --- | --- | --- | --- |
| 229.5 to 231 | CC(=O)Nc1nc(CCc2ccc(C(=N)N)cc2)cs1.Cl |  |  |
| 190.5 to 192 | CC(=O)Nc1nc(CCc2ccc(CC(=N)N)cc2)cs1 (as salt: hydrochloride) [Production Example 59, N-(4-{2-[4-(2-amino-2-iminoethyl)phenyl]ethyl}-1,3-thiazol-2-yl)acetamide] |  |  |
| 130 to 130.5 | CC(=O)Nc1nc(CCc2ccc(CON)cc2)cs1 [Compound B, N-[4-(2-{4-[(aminooxy)methyl]phenyl}ethyl)-1,3-thiazol-2-yl]acetamide] | 7.54 ± 0.80 ×10^−3 | 9.86 ± 1.65 ×10^−3 |
| 218 to 219.5 | CC(=O)Nc1nc(CCc2ccc(NC3=NCCS3)cc2)cs1 [Production Example 2, N-(4-(2-(4-(4,5-dihydro-1,3-thiazol-2-ylamino)phenyl)ethyl)-1,3-thiazol-2-yl)acetamide] |  |  |
| 136.5 to 137 | C=NOCc1ccc(CCc2csc(NC(C)=O)n2)cc1 [Production Example 17, N-{4-[2-(4-{[(methyleneamino)oxy]methyl}phenyl)ethyl]-1,3-thiazol-2-yl}acetamide] |  |  |
| 228 to 229.5 | CC(=O)Nc1nc(CCc2ccc(NC(=N)N)cc2)c(Cc2ccc(S(C)(=O)=O)cc2)s1 [Production Example 48, N-{4-[2-(4-{[amino(imino)methyl]amino}phenyl)ethyl]-5-[4-(methylsulfonyl)benzyl]-1,3-thiazol-2-yl}acetamide] |  |  |
| 139 to 140 | CC(=O)Nc1nc(CCc2ccc(NC3=NCCN3)cc2)c(Cc2ccc(S(C)(=O)=O)cc2)s1 [Production Example 55, N-{4-{2-[4-(4,5-dihydro-1H-imidazol-2-ylamino)phenyl]ethyl}-5-[4-(methylsulfonyl)benzyl]-1,3-thiazol-2-yl}acetamide] |  |  |
| 81.5 to 83 | CC(=N)Nc1ccc(CCc2nc(NC(C)=O)sc2Cc2ccc(S(C)(=O)=O)cc2)cc1 [Production Example 56, N-{4-{2-[4-(ethanimidoylamino)phenyl]ethyl}-5-[4-(methylsulfonyl)benzyl]-1,3-thiazol-2-yl}acetamide] |  |  |
| 108 to 109.5 | CC(=O)Nc1nc(CCc2ccc(C(=O)NC(=N)N)cc2)c(Cc2ccc(S(C)(=O)=O)cc2)s1 [Production Example 106, 4-(2-{2-(acetylamino)-5-[4-(methylsulfonyl)benzyl]-1,3-thiazol-4-yl}ethyl)-N-[amino(imino)methyl]benzamide] |  |  |
